Patent US20210395239A1 (Hoffmann-La Roche Inc., priority 2018, published 2021)

The compounds below were run against T1, human TLR7 (Homo sapiens, UniProt Q9NYK1) (assay: HEK293-Blue-hTLR-7 cells assay (SEAP reporter, R848 stimulation)). Conditions: HEK293-Blue-hTLR7 cells, R848, 20 hrs; read-out: HEK/hTLR7 IC50.
T1 construct: host or cells: HEK293 (HEK-Blue hTLR7)
T1 sequence (Q9NYK1 27-1049): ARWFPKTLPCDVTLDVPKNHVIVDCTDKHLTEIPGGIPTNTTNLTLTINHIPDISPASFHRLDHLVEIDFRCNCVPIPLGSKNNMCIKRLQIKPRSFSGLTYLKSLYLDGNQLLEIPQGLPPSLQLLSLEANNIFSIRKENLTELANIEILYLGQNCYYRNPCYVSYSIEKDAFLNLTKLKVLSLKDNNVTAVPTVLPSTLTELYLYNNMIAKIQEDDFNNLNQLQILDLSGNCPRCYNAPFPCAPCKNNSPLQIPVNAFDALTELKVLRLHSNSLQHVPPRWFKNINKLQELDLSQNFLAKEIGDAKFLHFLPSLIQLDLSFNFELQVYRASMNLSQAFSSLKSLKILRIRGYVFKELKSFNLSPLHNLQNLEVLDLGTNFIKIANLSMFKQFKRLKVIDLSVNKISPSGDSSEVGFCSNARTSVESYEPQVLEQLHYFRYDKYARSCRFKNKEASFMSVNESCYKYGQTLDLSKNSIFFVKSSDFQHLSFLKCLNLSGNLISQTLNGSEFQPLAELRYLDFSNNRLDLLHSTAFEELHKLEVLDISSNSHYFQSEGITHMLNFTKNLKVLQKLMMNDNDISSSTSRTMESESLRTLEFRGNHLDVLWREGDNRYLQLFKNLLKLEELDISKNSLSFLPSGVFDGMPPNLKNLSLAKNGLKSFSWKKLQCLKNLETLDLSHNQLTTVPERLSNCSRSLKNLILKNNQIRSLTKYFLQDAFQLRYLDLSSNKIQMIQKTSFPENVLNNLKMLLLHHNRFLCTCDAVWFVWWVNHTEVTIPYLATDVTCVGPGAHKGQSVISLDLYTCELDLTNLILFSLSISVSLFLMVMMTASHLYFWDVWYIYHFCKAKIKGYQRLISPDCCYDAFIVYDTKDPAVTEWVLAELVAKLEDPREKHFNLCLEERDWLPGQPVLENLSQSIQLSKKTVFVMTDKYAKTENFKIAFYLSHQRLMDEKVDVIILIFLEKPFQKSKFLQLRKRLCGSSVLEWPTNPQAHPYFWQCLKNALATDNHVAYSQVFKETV
Format: cell-based
Outline: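 HEK293-Blue-hTLR7 cells (NF-κB/AP-1-driven SEAP reporter) were stimulated with R848 alongside serially diluted compound at 1% final DMSO for 20 h at 37 °C. Supernatant SEAP was then developed with QUANTI-Blue for 2 h at 37 °C and absorbance read at 620–655 nm; antagonism is measured as reduced reporter signal.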

| Compound | IC50 |
| --- | --- |
| Cc1cc(N2CCN(C[C@H]3CN(c4ccc(C#N)c5ncccc45)C[C@@H](C)O3)CC2)nc(N2CC(N)C(F)C2)n1 (stereo in doubt) [Example 54, 5-[(2S,6R)-2-[[4-[2-[(3S,4R)-3-amino-4-fluoro-pyrrolidin-1-yl]-6-methyl-pyrimidin-4-yl]piperazin-1-yl]methyl]-6-methyl-morpholin-4-yl]quinoline-8-carbonitrile] | 9 nM |
| Cc1cc(N2CCN(C[C@H]3CN(c4ccc(C(F)(F)F)c5nccnc45)C[C@@H](C)O3)CC2)nc(N2CCNCC2)n1 [Example 65, (2R,6S)-2-methyl-6-[[4-(6-methyl-2-piperazin-1-yl-pyrimidin-4-yl)piperazin-1-yl]methyl]-4-[8-(trifluoromethyl)quinoxalin-5-yl]morpholine] | 15 nM |
| C[C@@H]1CN(c2cc(=O)n(C)c3ncccc23)C[C@H](CN2CC(c3ccc(N4CC5(CN(C)C5)C4)cc3)C2)O1 [Example 180, 1-methyl-4-[(2R,6S)-2-methyl-6-[[3-[4-(6-methyl-2,6-diazaspiro[3.3]heptan-2-yl)phenyl]azetidin-1-yl]methyl]morpholin-4-yl]-1,8-naphthyridin-2-one] | 53 nM |
| C[C@@H]1CN(c2ccc(C#N)c3ncccc23)C[C@H](CN2CCN(c3ccnc(N[C@H]4CNC[C@H]4F)n3)CC2)O1 [Example 24, 5-[(2S,6R)-2-[[4-[2-[[(3S,4R)-4-fluoropyrrolidin-3-yl]amino]pyrimidin-4-yl]piperazin-1-yl]methyl]-6-methyl-morpholin-4-yl]quinoline-8-carbonitrile] | 38 nM |
| C[C@@H]1CN(c2ccc(C#N)n3ncc(F)c23)C[C@H](CN2CCN(c3ccc(N4CC5(CNCCO5)C4)nc3)CC2)O1 [Example 169, 3-fluoro-4-[(2R,6S)-2-methyl-6-[[4-[6-(5-oxa-2,8-diazaspiro[3.5]nonan-2-yl)-3-pyridyl]piperazin-1-yl]methyl]morpholin-4-yl]pyrazolo[1,5-a]pyridine-7-carbonitrile] | 9 nM |
| C[C@@H]1CN(c2ccc(C#N)c3ncccc23)C[C@H](CN2CCN(c3cc(N4CCN(C)CC4)ncn3)CC2)O1 [Example 21, 5-[(2R,6S)-2-methyl-6-[[4-[6-(4-methylpiperazin-1-yl)pyrimidin-4-yl]piperazin-1-yl]methyl]morpholin-4-yl]quinoline-8-carbonitrile] | 16 nM |
| COC1CN(c2ccc(N3CCN(C[C@H]4CN(c5ccc(C#N)c6ncccc56)C[C@@H](C)O4)CC3)cn2)CC1N (stereo partly drawn) [Example 43, 5-[(2S,6R)-2-[[4-[6-(3-amino-4-methoxy-pyrrolidin-1-yl)-3-pyridyl]piperazin-1-yl]methyl]-6-methyl-morpholin-4-yl]quinoline-8-carbonitrile] | 22 nM |
| C[C@@H]1CN(c2ccc(C#N)n3ncc(F)c23)C[C@H](CN2CCN(c3ccc(N4CC[C@@H](N)[C@H](F)C4)nc3)CC2)O1 [Example 175, 4-[(2S,6R)-2-[[4-[6-[(3R,4R)-4-amino-3-fluoro-1-piperidyl]-3-pyridyl]piperazin-1-yl]methyl]-6-methyl-morpholin-4-yl]-3-fluoro-pyrazolo[1,5-a]pyridine-7-carbonitrile] | 10 nM |
| C[C@@H]1CN(c2ccc(C#N)c3ncccc23)C[C@H](CN2CCN(c3ccnc(OCCN(C)C)n3)CC2)O1 [Example 30, 5-[(2S,6R)-2-[[4-[2-[2-(dimethylamino)ethoxy]pyrimidin-4-yl]piperazin-1-yl]methyl]-6-methyl-morpholin-4-yl]quinoline-8-carbonitrile] | 16 nM |
| C[C@@H]1CN(c2ccc(C#N)c3ncccc23)C[C@H](CN2CCN(c3cccc(N4CCN(C)CC4)n3)CC2)O1 [Example 33, 5-[(2R,6S)-2-methyl-6-[[4-[6-(4-methylpiperazin-1-yl)-2-pyridyl]piperazin-1-yl]methyl]morpholin-4-yl]quinoline-8-carbonitrile] | 24 nM |
| Cc1cc(N2CCN(C[C@H]3CN(c4ccc(C#N)n5ncc(F)c45)C[C@@H](C)O3)CC2)nc(N2CCNCC2)n1 [Example 67, 3-Fluoro-4-[(2R,6S)-2-methyl-6-[[4-(6-methyl-2-piperazin-1-yl-pyrimidin-4-yl)piperazin-1-yl]methyl]morpholin-4-yl]pyrazolo[1,5-a]pyridine-7-carbonitrile] | 24 nM |
| C[C@@H]1CN(c2cc(=O)n(C)c3ncccc23)C[C@H](CN2CC(c3ccc(N4CC5(CNCCO5)C4)cc3)C2)O1 [Example 173, 1-methyl-4-[(2R,6S)-2-methyl-6-[[3-[4-(5-oxa-2,8-diazaspiro[3.5]nonan-2-yl)phenyl]azetidin-1-yl]methyl]morpholin-4-yl]-1,8-naphthyridin-2-one] | 29 nM |
| C[C@@H]1CN(c2cc(=O)n(C)c3ncccc23)C[C@H](CN2CC(c3ccc(N4C[C@H]5NCCO[C@@H]5C4)cc3)C2)O1 [Example 182, 4-[(2S,6R)-2-[[3-[4-[(4aR,7aR)-3,4,4a,5,7,7a-hexahydro-2H-pyrrolo[3,4-b][1,4]oxazin-6-yl]phenyl]azetidin-1-yl]methyl]-6-methyl-morpholin-4-yl]-1-methyl-1,8-naphthyridin-2-one] | 26 nM |
| C[C@@H]1CN(c2ccc(C#N)c3ncccc23)C[C@H](CN2CCN(c3cnc(N4CCNCC4)nc3)CC2)O1 [Example 12, 5-[(2R,6S)-2-methyl-6-[[4-(2-piperazin-1-ylpyrimidin-5-yl)piperazin-1-yl]methyl]morpholin-4-yl]quinoline-8-carbonitrile] | 12 nM |
| C[C@@H]1CN(c2ccc(C#N)c3ncccc23)C[C@H](CN2CCN(c3ccc(N4CCNCC4)nc3)CC2)O1 [Example 13, 5-[(2R,6S)-2-methyl-6-[[4-(6-piperazin-1-yl-3-pyridyl)piperazin-1-yl]methyl]morpholin-4-yl]quinoline-8-carbonitrile] | 18 nM |
| Cc1nc(N2CCNCC2)nc(N2CCN(C[C@H]3CN(c4ccc(C#N)c5ncccc45)C[C@@H](C)O3)CC2)c1C [Example 46, 5-[(2S,6R)-2-[[4-(5,6-dimethyl-2-piperazin-1-yl-pyrimidin-4-yl)piperazin-1-yl]methyl]-6-methyl-morpholin-4-yl]quinoline-8-carbonitrile] | 18 nM |
| CO[C@H]1CN(c2nccc(N3CCN(C[C@H]4CN(c5ccc(C#N)c6ncccc56)C[C@@H](C)O4)CC3)n2)C[C@@H]1N [Example 26, 5-[(2S,6R)-2-[[4-[2-trans-(3-amino-4-methoxy-pyrrolidin-1-yl)pyrimidin-4-yl]piperazin-1-yl]methyl]-6-methyl-morpholin-4-yl]quinoline-8-carbonitrile] | 8 nM |
| Cc1cc(N2CCN(C[C@H]3CN(c4ccc(C#N)c5ncccc45)C[C@@H](C)O3)CC2)nc(N2C[C@@H]3COC[C@@H](C2)N3)n1 [Example 58, 5-[(2R,6S)-2-methyl-6-[[4-[6-methyl-2-[(1R,5R)-3-oxa-7,9-diazabicyclo[3.3.1]nonan-7-yl]pyrimidin-4-yl]piperazin-1-yl]methyl]morpholin-4-yl]quinoline-8-carbonitrile] | 30 nM |
| C[C@@H]1CN(c2ccc(C#N)c3ncccc23)C[C@H](CN2CCN(c3ccnc(N4CCNCC4)n3)CC2)O1 [Example 15, 5-[(2R,6S)-2-methyl-6-[[4-(2-piperazin-1-ylpyrimidin-4-yl)piperazin-1-yl]methyl]morpholin-4-yl]quinoline-8-carbonitrile] | 7 nM |
| C[C@@H]1CN(c2ccc(C#N)c3ncccc23)C[C@H](CN2CCN(c3ncc(N4CCNCC4)cn3)CC2)O1 [Example 17, 5-[(2R,6S)-2-methyl-6-[[4-(5-piperazin-1-ylpyrimidin-2-yl)piperazin-1-yl]methyl]morpholin-4-yl]quinoline-8-carbonitrile] | 31 nM |
| C[C@@H]1CN(c2ccc(C#N)c3ncccc23)C[C@H](CN2CCN(c3ccnc(N4CCC(N)CC4)n3)CC2)O1 [Example 27, 5-[(2S,6R)-2-[[4-[2-(4-amino-1-piperidyl)pyrimidin-4-yl]piperazin-1-yl]methyl]-6-methyl-morpholin-4-yl]quinoline-8-carbonitrile] | 15 nM |
| C[C@@H]1CN(c2ccc(C#N)c3ncccc23)C[C@H](CN2CCN(c3ccnc(N4CCNCC(O)C4)n3)CC2)O1 (stereo partly drawn) [Example 25, 5-[(2S,6R)-2-[[4-[2-(6-hydroxy-1,4-diazepan-1-yl)pyrimidin-4-yl]piperazin-1-yl]methyl]-6-methyl-morpholin-4-yl]quinoline-8-carbonitrile] | 26 nM |
